Results taken from PMC2361176, “Inhibitory effects of retinoic acid metabolism blocking agents (RAMBAs) on the growth of human prostate cancer cells and LNCaP prostate tumour xenografts in SCID mice” (British Journal of Cancer, 2006).
Entries after “also recorded” stand apart in the source; their conditions may differ.

What was measured:
[1] = test system: cytokeratin 8/18; assay: Differentiation assay (Western-blot analysis of cytokeratins 8/18); format: cell-based, human; details: LNCaP cells, 6 days; for cytokeratin 8/18 expression, fold over control: 1 μM agent alone; for cytokeratin 8/18 expression, fold over control / cytokeratin 8/18 expression, fold over control, combination with ATRA: control 1±0.07; for expression of cytokeratin 8/18 (concentration dependence): various concentrations; for cytokeratin 8/18 expression, fold over control, combination with ATRA: 1 μM RAMBA and 1 μM ATRA
Method: LNCaP cells were scraped with 1.5 ml of PBS. The cells were collected by centrifugation, resuspended in ice-cold cell lysis buffer (0.1 M Tris-HCl, 0.5% Triton X-100, and protease inhibitor cocktail (Boehringer, Indianapolis, IN, USA)), and sonicated. The homogenates were incubated on ice for 30 min, subjected to centrifugation at 13 000 × g for 30 min, and the supernatants were separated and stored at −80°C until use. Protein concentrations were determined by the Bradford method using a Bio-Rad kit (Hercules, CA, USA). A measure of 50 μg of cell lysate was subjected to 10% sodium dodecyl sulfate-polyacrylamide gel electrophoresis (SDS–PAGE) using the Mini-PROTEAN3 electrophoresis module assembly (Bio-Rad, Hercules, CA, USA) at 60 V at room temperature. The separated lysates on 10% SDS–PAGE gel were transferred onto Hybond ECL nitrocellulose membrane (Amersham, Arlington Heights, IL, USA) overnight at 20 V at 4°C. Western-blot analysis was performed on the nitrocellulose membrane. The membrane was blocked for 1 h in 10% nonfat dried milk and PBS containing 0.5% Tween 20 (PBS-T) at room temperature. Following washing in PBS-T, the membrane was incubated with mouse monoclonal IgG antibody to cytokeratin 8/18 or β-actin (Santa Cruz Biotechnology, Santa Cruz, CA, USA and Oncogene Research Products, Boston, MA, USA, respectively) dissolved in 10% nonfat dried milk (1 : 5000 or 1 : 10 000), respectively) for l h at room temperature. Following washing, the membrane was incubated with horseradish peroxidase-linked anti-mouse IgG antibody (Amersham, Arlington Heights, IL, USA and Oncogene Research Products, Boston, MA, USA, respectively) dissolved in 10% nonfat dried milk (1 : 1000) for 1 h at room temperature. The membrane was incubated in 4 ml ECL Western Blotting Analysis System (Amersham, Arlington Heights, IL, USA) for 1 min at room temperature. The membrane was resolved on chemiluminescence film (Amersham Hyperfilm High Performance chemiluminescence film, Arlington Heights, IL, USA) and the film was developed using an X-ray developer (M35A X-OMAT Processor, Eastman Kodak Company, Rochester, NY, USA). The intensity of the bands on film was analysed using ImageQuant 5.0 software (Amersham, Arlington Heights, IL, USA). The band intensity corresponds to the level of protein expression of cytokeratin 8/18, which is shown to be expressed in differentiated cells of epithelial origin ([Peehl et al, 1993]; [Hsieh et al, 1995]).

[2] = test system: Bad; assay: Western-blot analysis of Bad in LNCaP cells; format: cell-based, human; details: 5 and 10 μM, P<0.05
Method: (§1) The Western-blot protocol described for cytokeratins 8/18 was followed with some exceptions. Cell lysates (50 μg) were separated on a 15% SDS–PAGE gel. All washing was performed using TBS containing 1% Tween 20 (TBS-T). Blocking was performed using 5% milk in TBS-T. Incubations were performed using rabbit monoclonal IgG antibody to Bad and Bcl-2 (1 : 1000), as well as horseradish peroxidase-linked anti-rabbit IgG antibodies (1 : 2000) (Cell Signaling Technology, Beverly, MA, USA).

[3] = test system: Bcl-2; assay: Western-blot analysis of Bcl-2 in LNCaP cells; format: cell-based, human; details: data not shown
Method: as §1

[4] = Tolerability and body weight in the LNCaP xenograft study; format: in vivo; details: 0.033 mmol kg−1 once daily
Method: All animal studies were performed according to the guidelines and approval of the Animal Care Committee of the University of Maryland School of Medicine, and were consistent with United Kingdom Coordinating Committee on Cancer Research guidelines for the welfare of animals in experimental neoplasia. The procedure was modified from [Grigoryev et al (1999)]. Briefly, LNCaP cells were trypsinised, counted, and suspended in Matrigel (2 × 10^7 cells ml^−1) (Fisher Scientific International, Inc., Hampton, NH, USA). Male SCID mice of 4–6 weeks of age were obtained from the National Cancer Institute (Frederick, MD, USA). Each mouse was inoculated s.c. with 0.1 ml of the cell suspension at two sites in the flank. The size of the tumours was determined by measuring the tumour volumes using calipers. Tumour volumes were calculated using the formula V=4/3 × π × r1^2 × r2(r1<r2). The tumours were allowed to develop to approximately 100 mm^3 before treatment. […] Tumour volumes were measured twice weekly and weights of animals were taken weekly after the initiation of treatment. The mice were subjected to 6 weeks of treatment. The mice were then killed and the tumours were excised, weighed, and stored at −80°C until analysis. Additionally, the plasma was collected with 50 IU of heparin and stored at −80°C until analysis.

[5] = test system: MCF-7 human breast cancer model; design: method as in Patel et al, 2004, 2006; details: ref Patel et al, 2004, 2006; cited from earlier work
[6] = target: T1, CYP26 (Homo sapiens, UniProt O43174); assay: Cellular microsomal CYP26 assay (ATRA metabolism of microsomes prepared from T47D cells); format: biochemical
T1 construct: LNCaP cells were incubated with 1 μM ATRA for 24 h to induce the CYP26 enzyme; endogenous in cells; host or cells: LNCaP human prostate cancer cells, pre-treated with 1 μM ATRA
T1 sequence (O43174 1-497): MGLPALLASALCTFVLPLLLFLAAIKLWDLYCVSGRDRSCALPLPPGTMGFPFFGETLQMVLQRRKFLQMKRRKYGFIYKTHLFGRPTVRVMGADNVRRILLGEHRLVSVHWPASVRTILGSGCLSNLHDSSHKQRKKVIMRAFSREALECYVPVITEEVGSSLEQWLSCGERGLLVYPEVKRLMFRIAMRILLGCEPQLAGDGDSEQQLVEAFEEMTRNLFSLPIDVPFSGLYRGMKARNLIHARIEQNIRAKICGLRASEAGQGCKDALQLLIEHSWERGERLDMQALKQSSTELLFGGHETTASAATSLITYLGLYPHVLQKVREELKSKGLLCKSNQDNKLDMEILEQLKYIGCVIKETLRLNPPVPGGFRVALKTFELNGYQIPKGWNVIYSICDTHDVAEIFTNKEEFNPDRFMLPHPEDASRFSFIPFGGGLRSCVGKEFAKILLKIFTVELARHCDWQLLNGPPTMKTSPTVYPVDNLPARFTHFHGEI

[7] = test system: T47D cells; design: method as in Patel et al, 2004; details: cellular assay; ref Patel et al, 2004; read-out: IC50, inhibition of ATRA metabolism in T47D cells; cited from earlier work

SMILES | cytokeratin 8/18 expression, fold over control [1] | cytokeratin 8/18 expression compared to control ([1]; 5 and 10 μM, P<0.05, data not shown) | expression of cytokeratin 8/18 (concentration dependence) ([1]; data not shown) | Bad expression compared with control [2] | expression of Bcl-2 [3] | reduction of body weights compared to control ([4]; data not shown) | cytokeratin 8/18 expression, fold over control, combination with ATRA [1] | antitumour efficacy [5] | fold higher potency in microsomes compared to the cellular IC50 value ([6]; microsomal vs cellular IC50) | IC50 ([6]; microsomes, read-out: IC50, inhibition of ATRA metabolism of microsomes prepared from T47D cells previously exposed to ATRA) | toxicity to the mice [4] | IC50 [7]
CC1=C(/C=C/C(C)=C/C=C/C(C)=C/C(=O)O)C(C)(C)CCC1 [ATRA, all-trans-retinoic acid, reference compound] | 1.38 fold | significant increase | concentration-dependent increase | significant increase | concentration-dependent decrease | ~25% | – | – | – | – | – | –
CC1=C(/C=C/C(C)=C/C=C/C(C)=C/C(=O)O)C(C)(C)CCC1n1ccnc1 (stereo not drawn) [VN/14-1] | 1.18 fold | – | concentration-dependent increase | – | concentration-dependent decrease | – | 1.59 fold | excellent antitumour efficacy | – | – | – | –
CC1=C(/C=C/C(C)=C/C=C/C(C)=C/C(=O)n2ccnc2)C(C)(C)CCC1n1ccnc1 (stereo not drawn) [VN/50-1] | 1.23 fold | – | concentration-dependent increase | – | did not effect | – | 1.51 fold | – | ~13 fold | 7 ± 1.2 nM | very toxic; also recorded: toxic | 10 nM
CC1=C(/C=C/C(C)=C/C=C/C(C)=C/C(=O)Nc2ccc(O)cc2)C(C)(C)CCC1n1ccnc1 (stereo not drawn) [VN/66-1] | 1.28 fold | – | concentration-dependent increase | – | did not effect | – | 1.48 fold | – | – | – | – | –
CC1=C(/C=C/C(C)=C/C=C/C(C)=C\C(=O)Nc2ccc(O)cc2)C(C)(C)CCC1n1ccnc1 (stereo not drawn) [VN/69-1] | 1.19 fold | – | concentration-dependent increase | – | did not effect | – | 1.32 fold | – | – | – | – | –
